From PMC7377239, “Cardiovascular Effects of Polychlorinated Biphenyls and Their Major Metabolites” (Environmental Health Perspectives, 2020)
Where two headings read alike, the source gives them in different places.

Experiments:
HUVECs = assay: High-content imaging cytotoxicity in HUVECs, 24 h; assay type: cell-based, human; settings: Homo sapiens, HUVEC, 24 h, HUVECs; for viability at 0.01 µM / activity at 0.01 µM / viability at 0.1 µM / activity at 0.1 µM / viability at 1 µM / activity at 1 µM / viability at 10 µM / activity at 10 µM / viability at 100 µM / activity at 100 µM: 0.00 µM = 100.00; for viability at 0.1 µM / activity at 0.1 µM: 0.10 µM; for minimal effective concentration: top concentration 100.00 µM
Procedure: Similar to the cultivation of iCell®-endothelial cells, HUVEC maintenance and experimentation are detailed elsewhere ([Iwata et al. 2017]). Briefly, HUVECs were thawed, seeded, and grown in T75 tissue culture flasks in Medium 199 with EGM™-2 BulletKits™. HUVECs were incubated at regular cell culture conditions, 37°C and 5% CO2 , and passaged every 2–3 d using TrypLE™ Express. To ensure adequate endothelial function, experiments were performed with cells between passages 1 and 5.
(§1) Cytotoxicity was assessed in parallel experiments. For iCell®-endothelial cells, 384-well plates were coated with a 30μg/mL fibronectin solution ( 10μL/well ) and incubated for 2 h at RT. iCell®-endothelial cells were dissociated with TrypLE™ Express and prepared into a solution to achieve 750 cells per well and 50μL of total volume. The fibronectin solution was removed from the 384-well plate, and cells were plated. For HUVECs, similar dissociation and the same cell density were used for plating with the exclusion of the fibronectin solution. Cells were incubated at 37°C and 5% CO2 until a monolayer was formed, typically 3–5 d. 2×PCB plates were created with the requisite maintenance medium. Before treatment, the medium in the wells was exchanged to 25μL/well of fresh maintenance medium. 2×PCB chemical solutions ( […] ) were added. After 24 h incubation at 37°C and 5% CO2 , cells were stained with Hoechst 33342, MitoTracker™ Orange, and calcein AM for 20 min before replacing the staining media with FluoroBright DMEM. Cell culture plates were imaged using the ImageXpress® Micro Confocal high-content imaging system (Molecular Devices). Images were acquired at 10× magnification with DAPI, TRITC, or FITC filter (Hoechst 33342, MitoTracker™, or calcein AM, respectively). The multiwavelength cell scoring applications module in MetaXpress™ (Molecular Devices) was used to analyze the images.
(§2) Phenotypic responses were quantitatively assessed using concentration–response modeling as detailed elsewhere ([Sirenko et al. 2017]). Briefly, phenotypic readouts were normalized to vehicle controls and fit to a four-parameter logistic model in R studio software (version 3.1.1; R Development Core Team). Following EPA guidance on dose–response modeling, a cutoff of one standard deviation across means of vehicle control (i.e., 0.5% vol/vol DMSO in cell culture media) wells was applied to determine the point-of-departure (POD) values ([U.S. EPA 2012]). In the absence of a concentration–response, the highest tested concentration (i.e., 100μM ) was assigned as “no observable adverse effect level.” The concentration–response assessment R script, as well as templates for vehicle and concentration–response data, are available as a supplement to Sirenko et al. ([2017]). The ability of physicochemical properties to predict differences in PODs were evaluated by multiregression and mixed-effects modeling using R.

[1] = test system: iCell endothelial cells (human iPSC-derived ECs); assay: High-content imaging cytotoxicity in iCell endothelial cells, 24 h; assay type: cell-based; settings: Homo sapiens, Endothelial cell, iPSC-EC, 24 hr; for viability at 0.1 µM / activity at 0.1 µM: 0.10 µM; for minimal effective concentration: top concentration 100.00 µM
Procedure: The culture conditions of iCell®-endothelial cells were as reported elsewhere ([Iwata et al. 2017]). Briefly, T75 flasks were coated with a fibronectin solution ( 3 μg/cm^2 ) followed by incubation for 1–2 h. Cells were thawed for 3 min in a 37°C water bath. Thawed cells were added to maintenance medium made of VascuLife VEGF Medium Complete Kit, excluding the supplied FBS, and iCell® Endothelial Cells Medium Supplement. The final formulation of the maintenance medium is detailed in ([Iwata et al. 2017]). The aliquoted fibronectin solution was aspirated from the T75 flasks, and cells were seeded at 1.0×10^4 cells/cm^2 . Cells were maintained at 37°C and 5% CO2 with media changes occurring every 2 d and passaged every 3–4 d using TrypLE™ Express. All experiments were conducted on cells between passages 1 and 5.
as §1, §2

[2] = 24 hr, read-out: huvec.cyto.24hr
[3] = 24 hr, read-out: huvec.mito.24hr
[4] = 24 hr, read-out: huvec.mitoint.24hr
[5] = 24 hr, read-out: huvec.nma.24hr
[6] = 24 hrs, read-out: huvec.tc.24hrs
[7] = 0.00 µM control = 100.00, read-out: endo.cyto.24hr
[8] = 0.00 µM control = 100.00, read-out: endo.mito.24hr
[9] = 0.00 µM control = 100.00, read-out: endo.mitoint.24hr
[10] = 0.00 µM control = 100.00, read-out: endo.nma.24hr
[11] = 0.00 µM control = 100.00, read-out: endo.tc.24hrs

In the case of `Oc1ccc(O)c(-c2ccc(Cl)cc2)c1` [2',5'-DiOH PCB3], the viability at 0.01 µM (HUVECs; [2]) is reported as 84.3%, the activity at 0.01 µM (HUVECs; [3]) is reported as 83.2% and the activity at 0.01 µM (HUVECs; [4]) is reported as 99.1%. The activity at 0.01 µM (HUVECs; [5]) was 101%, the viability at 0.1 µM (HUVECs; [2]) was 103% and the activity at 0.1 µM (HUVECs; [3]) was 103%. It also gave an activity at 0.1 µM (HUVECs; [4]) of 112%, an activity at 0.1 µM (HUVECs; [5]) of 97.2% and a viability at 1 µM (HUVECs; [2]) of 75%. It also gave an activity at 1 µM (HUVECs; [3]) of 73.6%, an activity at 1 µM (HUVECs; [4]) of 104% and an activity at 1 µM (HUVECs; [5]) of 101%. For the same compound, the viability at 10 µM (HUVECs; [2]) was 57.5%, the activity at 10 µM (HUVECs; [3]) was 27.6% and the activity at 10 µM (HUVECs; [4]) was 10.3%. The activity at 10 µM (HUVECs; [5]) was 96.2%, the viability at 100 µM (HUVECs; [2]) was 2.82% and the activity at 100 µM (HUVECs; [3]) was 0%. It also gave an activity at 100 µM (HUVECs; [4]) of 0%, an activity at 100 µM (HUVECs; [5]) of 83.3% and a minimal effective concentration (HUVECs; 24 hr, read-out: huvec.cyto.24hr POD) of 0.12 µM. It also gave a minimal effective concentration (HUVECs; 24 hr, read-out: huvec.mito.24hr POD) of 0.13 µM, a minimal effective concentration (HUVECs; 24 hr, read-out: huvec.mitoint.24hr POD) of 3.51 µM and a minimal effective concentration (HUVECs; 24 hr, read-out: huvec.nma.24hr POD) of 8.87 µM. For the same compound, the viability at 0.01 µM (HUVECs; [6]) was 84.5%, the viability at 0.1 µM (HUVECs; [6]) was 103% and the viability at 1 µM (HUVECs; [6]) was 75%. The viability at 10 µM (HUVECs; [6]) was 57.7%, the viability at 100 µM (HUVECs; [6]) was 89.6% and the minimal effective concentration (HUVECs; 24 hrs, read-out: huvec.tc.24hrs POD) was 0.12 µM. The viability at 0.01 µM [1, 7] was 90.8%, the activity at 0.01 µM [1, 8] was 91.1% and the activity at 0.01 µM [1, 9] was 127%. For the same compound, the activity at 0.01 µM [1, 10] was 103%, the viability at 0.01 µM [1, 11] was 90.8% and the viability at 0.1 µM [1, 7] was 93.4%. It also gave an activity at 0.1 µM [1, 8] of 94%, an activity at 0.1 µM [1, 9] of 109% and an activity at 0.1 µM [1, 10] of 101%. The viability at 0.1 µM [1, 11] was 93.5%, the viability at 1 µM [1, 7] was 99.2% and the activity at 1 µM [1, 8] was 99.2%. The activity at 1 µM [1, 9] was 104%, the activity at 1 µM [1, 10] was 98.6% and the viability at 1 µM [1, 11] was 99.2%. For the same compound, the viability at 10 µM [1, 7] was 86.5%, the activity at 10 µM [1, 8] was 86.6% and the activity at 10 µM [1, 9] was 108%. The activity at 10 µM [1, 10] was 101%, the viability at 10 µM [1, 11] was 86.5% and the viability at 100 µM [1, 7] was 12.2%. It also gave an activity at 100 µM [1, 8] of 2.34%, an activity at 100 µM [1, 9] of 28.7% and an activity at 100 µM [1, 10] of 184%. It also gave a viability at 100 µM [1, 11] of 17%, a minimal effective concentration ([1]; read-out: endo.cyto.24hr POD) of 6.71 µM and a minimal effective concentration ([1]; read-out: endo.mito.24hr POD) of 6.71 µM. It also gave a minimal effective concentration ([1]; read-out: endo.mitoint.24hr POD) of 44.6 µM, a minimal effective concentration ([1]; read-out: endo.nma.24hr POD) of 13.7 µM and a minimal effective concentration ([1]; read-out: endo.tc.24hrs POD) of 5.78 µM.
